Structures can show the parent of a compound that is named as a salt. Where two headings read alike, the source gives them in different places.
How the values were obtained:
[1] = in vivo; cited from earlier work
rhinovirus = conditions: mice sensitized with HDM, challenged with HDM and rhinovirus; cited from earlier work
[2] = cited from earlier work
[3] = system: Influenza A virus, WSN/33 strain of H1N1; conditions: for Median survival time / Survival proportion / Prolonged survival time*: Formula 5 20 mg/kg QD, oseltamivir 5 mg/kg BID; for Prolonged survival time*: compared with vehicle group
SSAO = biological target: T1, SSAO (Homo sapiens, UniProt Q16853); assay: Single-ascending dose clinical trial: plasma SSAO activity (H2O2 generation); format: in vivo
T1 construct: from tissue; host or cells: human plasma (healthy volunteers)
T1 sequence (Q16853 27-763 limits assumed): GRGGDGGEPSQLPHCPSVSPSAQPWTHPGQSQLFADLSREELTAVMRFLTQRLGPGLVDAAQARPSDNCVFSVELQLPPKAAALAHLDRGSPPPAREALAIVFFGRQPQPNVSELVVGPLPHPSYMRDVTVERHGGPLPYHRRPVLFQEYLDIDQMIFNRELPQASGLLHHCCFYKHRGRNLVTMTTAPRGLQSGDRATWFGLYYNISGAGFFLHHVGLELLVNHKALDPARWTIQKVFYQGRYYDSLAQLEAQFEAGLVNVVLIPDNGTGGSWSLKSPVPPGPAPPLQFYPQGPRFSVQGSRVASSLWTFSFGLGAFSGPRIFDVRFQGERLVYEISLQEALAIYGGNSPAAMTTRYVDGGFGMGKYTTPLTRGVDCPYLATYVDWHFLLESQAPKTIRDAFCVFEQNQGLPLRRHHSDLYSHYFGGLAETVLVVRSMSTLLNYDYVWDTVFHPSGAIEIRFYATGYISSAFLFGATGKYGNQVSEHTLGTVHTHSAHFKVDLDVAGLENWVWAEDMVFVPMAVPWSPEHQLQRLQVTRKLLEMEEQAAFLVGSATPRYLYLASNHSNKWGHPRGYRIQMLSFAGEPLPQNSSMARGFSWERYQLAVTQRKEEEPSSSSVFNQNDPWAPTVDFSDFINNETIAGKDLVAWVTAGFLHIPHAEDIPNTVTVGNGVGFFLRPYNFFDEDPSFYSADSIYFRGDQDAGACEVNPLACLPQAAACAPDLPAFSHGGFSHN
Protocol: (§1) Safety was assessed for 7 (±3) days after dosing.
(§2) Plasma PK parameters were determined by non-compartmental analysis.
SSAO-specific amine oxidase levels in plasma were determined using a kinetic-based assay essentially as described previously (Schilter et al). Endogenous monoamine oxidases A and B were inhibited by adding pargyline to plasma samples prior to measuring H2O2 generation levels in placebo and active recipients.

Rat model of NASH = conditions: in vivo
methylamine (MMA) = assay: Single-ascending dose clinical trial: plasma methylamine (MMA) levels; format: in vivo, human
Protocol: as §1

[4] = mouse, in vivo; cited from earlier work
[5] = Single-ascending dose clinical trial: safety, adverse events; format: in vivo, human
Protocol: as §1

[6] = human, in vivo
Protocol: as §1, §2

CC(C)(C)NC(=O)c1ccc(OC/C(=C/F)CN)cc1.Cl [BI 1467335]
airway infiltration of inflammatory immune cells [1]: suppressed
lung function [1]: improved
pulmonary fibrosis [1]: reduced
airway hyperreactivity (rhinovirus): reduced
inflammatory cellular infiltrates (rhinovirus): reduced
cytokine-induced cell migration ([2]; by diminishing leukocyte rolling and adherence): reduced
LPS-induced neutrophil lung migration ([2]; in vivo): reduced

CCOC(=O)C1=C[C@@H](OC(CC)CC)[C@H](NC(C)=O)[C@@H](N)C1 [Oseltamivir, oseltamivir, reference compound]
Median survival time ([3]; […]): undefined
Survival proportion ([3]; […]): 100%
Prolonged survival time* ([3]; […]): undefined
Prolonged survival time* ([3]; prophylactic): undefined

COC1CCN(c2ncc(OC/C(=C/F)CN)cn2)CC1 [Compound of Formula 5]
inhibition of plasma SSAO activity at 4 hours post-dose (SSAO; all dose cohorts, single dose): near complete inhibition
duration of suppression of plasma SSAO activity after a single dose (SSAO; single dose): up to 1 week
plasma amine oxidase activity (SSAO; single doses, all subjects): rapidly and potently decreased
duration of SSAO activity inhibition after a single dose (SSAO; single oral dose 1 mg to 10 mg): up to seven days
liver fibrosis (Rat model of NASH): decreases
liver inflammation (Rat model of NASH): decreases
Median survival time ([3]; […]): 6 days
Survival proportion ([3]; […]): 0%
Prolonged survival time* ([3]; […]): 20%
exacerbation of viral replication or pathology ([3]; monotherapy or in combination with oseltamivir): did not appear to exacerbate
Prolonged survival time* ([3]; prophylactic): 20%
plasma methylamine (methylamine (MMA); across the dose range, single dose): Dose-dependent increases
duration of dose-dependent increases in plasma MMA (methylamine (MMA); after single doses): up to 1 week
Maximum plasma MMA levels (methylamine (MMA); single dose): increased

NC/C(=C\F)COc1ccc(S(N)(=O)=O)cc1 [PXS-4681A]
cytokine production [4]: reduced
effects relative to dexamethasone treatment [4]: comparable
leukocyte trafficking [4]: reduced

COC1CCN(c2ncc(OC/C(=C/F)CN)cn2)CC1 [toslyate salt of Formula 5]
TEAE diagnosis and frequency: upper respiratory tract infection ([5]; All cohorts (n = 32)): 1 (3.1)
TEAE diagnosis and frequency: upper respiratory tract infection ([5]; cohort 1, single oral dose 1 mg or placebo (n = 8)): 0
TEAE diagnosis and frequency: upper respiratory tract infection ([5]; cohort 2, single oral dose 3 mg or placebo (n = 8)): 0
TEAE diagnosis and frequency: upper respiratory tract infection ([5]; cohort 3, single oral dose 6 mg (n = 8)): 0
TEAE diagnosis and frequency: upper respiratory tract infection ([5]; cohort 4, single oral dose 10 mg or placebo (n = 8)): 1 (12.5)
Subject incidence of TEAEs considered possibly treatment-related ([5]; human, in vivo): 1 (3.1)
Subject incidence of any TEAE ([5]; human, in vivo): 5 (15.6)
TEAE diagnosis and frequency: constipation ([5]; human, in vivo): 1 (3.1)
TEAE diagnosis and frequency: contact dermatitis ([5]; human, in vivo): 2 (6.3)
TEAE diagnosis and frequency: dysgeusia ([5]; human, in vivo): 1 (3.1)
TEAE diagnosis and frequency: headache ([5]; human, in vivo): 1 (3.1)
TEAE diagnosis and frequency: sore throat ([5]; human, in vivo): 1 (3.1)
TEAE diagnosis and frequency: oral herpes ([5]; human, in vivo, po): 1 (3.1)
clearance from plasma [6]: rapidly cleared from plasma
plasma PK exposure dose proportionality [6]: greater than dose proportional

From US20230127498A1, “TREATMENT OF RESPIRATORY DISORDERS” (Terns, Inc., priority 2020, published 2023)
